Laboratory results: BigSolDB 2.1

O=C(O)CCCC(=O)O
solubility (mole fraction) (in cyclohexanone, 295.35 K): 0.17 | solubility (mole fraction) (in cyclohexanone, 299.35 K): 0.184 | solubility (mole fraction) (in cyclohexanone, 303.65 K): 0.198 | solubility (mole fraction) (in cyclohexanone, 307.75 K): 0.228 | solubility (mole fraction) (in cyclohexanone, 311.85 K): 0.251 | solubility (mole fraction) (in methanol, 287.05 K): 0.204 | solubility (mole fraction) (in methanol, 295.55 K): 0.239 | solubility (mole fraction) (in methanol, 299.15 K): 0.256 | solubility (mole fraction) (in methanol, 302.85 K): 0.274 | solubility (mole fraction) (in methanol, 306.95 K): 0.294 | solubility (mole fraction) (in methanol, 310.15 K): 0.316 | solubility (mole fraction) (in methanol, 313.45 K): 0.34 | solubility (mole fraction) (in methanol, 317.15 K): 0.37 | solubility (mole fraction) (in methanol, 321.15 K): 0.403 | solubility (mole fraction) (in methanol, 324.85 K): 0.436 | solubility (mole fraction) (in methanol, 328.95 K): 0.472
